The values that follow come from PMC2574850 (Cellular signalling, 2008).

This assay addresses T1, PH ([325-451]ASAP1) (Mus musculus, UniProt Q9QWY8).
T1 sequence (Q9QWY8 325-451): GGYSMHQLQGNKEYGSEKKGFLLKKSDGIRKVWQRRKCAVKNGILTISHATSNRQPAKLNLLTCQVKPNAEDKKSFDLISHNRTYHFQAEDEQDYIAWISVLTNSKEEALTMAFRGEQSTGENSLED
Description: isothermal titration calorimetry. The format is binding.

Compound `O=P(O)(O)O[C@@H]1[C@H](O)[C@H](O)[C@@H](OP(=O)(O)O)[C@H](OP(=O)(O)O)[C@H]1O` [IP3] came in with a Kd of 75 ± 15 µM.

What is called Kd is the concentration at which binding is half-saturated. A lower Kd goes with a tighter complex.
